From patent US20230000869A1, “NOVEL ALK2 INHIBITORS AND METHODS FOR INHIBITING BMP SIGNALING” (The Brigham and Women's Hospital, Inc., priority 2017, published 2023)
pIC50: −log10 of the molar value.

Key:
ALK2 = molecular target: T1, ALK2 (Mus musculus, UniProt P37172); experiment: Luciferase reporter gene assay for ALK2 activity (C2C12 BRE-Luc SMAD1/5/8 reporter, BMP6 agonist); assay type: cell-based; settings: BMP6 50 ng/mL
T1 construct: endogenous in cells; host or cells: C2C12-BRE (BRE-Luc reporter line, G418 selection)
T1 sequence (P37172 21-509): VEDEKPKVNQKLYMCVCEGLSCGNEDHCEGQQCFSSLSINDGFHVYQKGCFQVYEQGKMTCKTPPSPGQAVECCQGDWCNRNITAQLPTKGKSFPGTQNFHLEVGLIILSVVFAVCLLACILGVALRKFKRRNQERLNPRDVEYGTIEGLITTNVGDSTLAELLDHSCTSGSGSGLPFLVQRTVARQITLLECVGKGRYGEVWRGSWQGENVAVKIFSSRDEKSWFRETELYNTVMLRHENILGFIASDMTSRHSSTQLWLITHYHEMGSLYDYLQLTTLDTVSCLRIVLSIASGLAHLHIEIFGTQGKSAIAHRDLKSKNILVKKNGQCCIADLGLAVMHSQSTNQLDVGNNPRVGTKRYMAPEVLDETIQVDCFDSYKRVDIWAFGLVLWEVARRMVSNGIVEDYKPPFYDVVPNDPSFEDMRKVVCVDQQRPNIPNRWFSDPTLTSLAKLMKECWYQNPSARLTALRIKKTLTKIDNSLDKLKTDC
Method: (§1) All cell lines were cultured in DMEM, supplemented with […] and 1% Pen/Strep. All media reagents were obtained from Gibco. BMP6, BMP9, and TGFβ were obtained from R&D Systems. C2C12-BRE and HEK293T-SBE were kept in selection with 400 ug/mL G418 from Invivogen.
(§2) In this reporter gene cell based ALK2 and TGFβ assay, the C2C12 cell line was employed for the measurement of ALK2 activity, using a BRE-Luc SMAD1/5/8 reporter and BMP6 as the agonist. The HEK293T cell line was employed to measure TGFβ activity, using a SBE-Luc SMAD2/3 reporter and TGFβ as the agonist. Luciferase reporter assays were read using Promega Steady-Glo Luciferase Assay System.
(§3) Cells were plated in 96 well white clear bottom assay plates at 10 k cells/well for C2C12-BRE, 15 k cells/well for HEK293-SBE in DMEM containing 2% FBS 1% P/S. Cells were given a minimum of 4 hours in incubator at 37° C./5% CO2 to adhere prior to further treatment. Compounds were diluted in DMSO to a 10-point dilution curve and added to the plate to reach the following final concentrations: 10000, 3000, 1000, 300, 100, and 30 nM in the HEK293-SBE assay and 1000, 300, 100, 30, 10, 3, 1, 0.3 nM in the C2C12-BRE assay. Negative and positive control wells received 2 μL DMSO as vehicle treatment. Plates were returned to incubator for 45 minutes and then BMP6 and TGFB were added to a final concentration of 50 ng/mL and 5 ng/mL, respectively. Plates were returned to the incubator and left overnight. After a minimum of 18 hours post BMP6/TGFβ addition, the plates were read using Promega Steady-Glo Luciferase Assay System. A 1:1 mixture of prepared steady-glo and phenol free DMEM was prepared, and 50 μL/well was added to the assay plates whose media had been flicked off. Plates were given 10 minutes post steady-glo addition before luminescence was read on a Spectramax M5e microplate reader. Negative control wells were averaged and subtracted from all other wells on the plate. Inhibition was calculated as the percent of signal loss compared to the averaged positive control wells.

TGFβ = experiment: Luciferase reporter gene assay for TGFβ activity (HEK293T SBE-Luc SMAD2/3 reporter, TGFβ agonist); assay type: cell-based; settings: Homo sapiens, HEK-293T, TGFβ 5 ng/mL
Method: as §1, §2, §3

Compound	pIC50 (ALK2)	pIC50 (TGFβ)
NC(=O)c1ccc(-c2cnn3cc(N4CCN(C5CCNCC5)CC4)cnc23)c2ccccc12 [Compound 3]	7.89	> 9.00
NC(=O)c1cccc2c(-c3cnn4cc(N5CCN(C6CCNCC6)CC5)cnc34)cccc12 [Compound 4]	< 5.52	< 5.52
CN1CCN(C2CCN(c3cnc4c(-c5ccc(C(N)=O)c6ccccc56)cnn4c3)CC2)CC1 [Compound 9]	7.44	7.64
CN1CCN(C2CCN(c3cnc4c(-c5cccc6c(C(N)=O)cccc56)cnn4c3)CC2)CC1 [Compound 10]	7.39	7.12
NC(=O)c1ccc(-c2cnn3cc(N4CCC(N5CCOCC5)CC4)cnc23)c2ccccc12 [Compound 12]	7.06	6.34
NC(=O)c1cccc2c(-c3cnn4cc(N5CCC(N6CCOCC6)CC5)cnc34)cccc12 [Compound 13]	7.25	6.58
CN1CCN(C2CCN(c3cnc4c(-c5cn[nH]c5)cnn4c3)CC2)CC1 [Compound 14]	6.73	< 5.52
COc1cc2c(-c3cnn4cc(N5CCC(N6CCOCC6)CC5)cnc34)ccnc2cc1F [Compound 16]	8.10	7.70
COc1cc2nccc(-c3cnn4cc(N5CCC(N6CCN(C)CC6)CC5)cnc34)c2cc1OC [Compound 17]	6.17	6.57
CN1CCN(C2CCN(c3cnc4c(-c5ccnc6cc7c(cc56)OCO7)cnn4c3)CC2)CC1 [Compound 18]	7.54	6.75
Cc1cc(-c2cnn3cc(N4CCN(CCN5CCOCC5)CC4)cnc23)c2ccccc2n1 [Compound 19]	6.95	7.19
COc1ccc2nccc(-c3cnn4cc(N5CCC(N6CCN(C)CC6)CC5)cnc34)c2c1 [Compound 20]	8.10	6.66
CCOc1ccc2nccc(-c3cnn4cc(N5CCC(N6CCN(C)CC6)CC5)cnc34)c2c1 [Compound 21]	7.57	5.89
Cc1cc(-c2cnn3cc(N4CCN(C5CCOCC5)CC4)cnc23)c2ccccc2n1 [Compound 22]	6.58	7.07
Cc1cc(-c2cnn3cc(N4CCN(C5CCNCC5)CC4)cnc23)c2ccccc2n1 [Compound 23]	6.84	7.06
CC(=O)N1CCC(N2CCN(c3cnc4c(-c5cc(C)nc6ccccc56)cnn4c3)CC2)CC1 [Compound 24]	6.65	7.25
CN1CCN(C2CCN(c3cnc4c(-c5cnn6ccccc56)cnn4c3)CC2)CC1 [Compound 26]	6.48	6.93
Cc1cc(-c2cnn3cc(N4CCN(c5ccncc5)CC4)cnc23)c2ccccc2n1 [Compound 27]	8.15	8.00
COc1cc2c(-c3cnn4cc(N5CCC(N6CCN(C)CC6)CC5)cnc34)ccnc2cc1Cl [Compound 28]	7.14	6.61
COc1cc2c(-c3cnn4cc(N5CCC(N6CCN(C)CC6)CC5)cnc34)ccnc2cc1C [Compound 29]	7.08	6.42
COc1ccc2nccc(-c3cnn4cc(N5CCC(N6CCOCC6)CC5)cnc34)c2c1 [Compound 30]	7.43	6.92
Cn1cc(-c2cnn3cc(N4CCC(N5CCOCC5)CC4)cnc23)c2ccccc2c1=O [Compound 32]	7.60	7.43
Cc1cc(-c2cnn3cc(N4CCN(C5(C)CCNCC5)CC4)cnc23)c2ccccc2n1 [Compound 33]	7.03	7.43
COc1cc2c(-c3cnn4cc(N5CCC(N6CCNCC6)CC5)cnc34)ccnc2cc1F [Compound 39, 7-fluoro-6-methoxy-4-[6-(4-piperazin-1-yl-1-piperidyl)pyrazolo[1,5-a]pyrimidin-3-yl]quinoline]	7.96	7.16

Compound	pIC50 (ALK2)	pIC50 (TGFβ)
CCN1CCN(C2CCN(c3cnc4c(-c5ccnc6cc(F)c(OC)cc56)cnn4c3)CC2)CC1 [Compound 40]	6.94	6.49
COc1cc2c(-c3cnn4cc(N5CCC(N6CCN(C)C(C)C6)CC5)cnc34)ccnc2cc1F (stereo not shown) [Compound 41]	6.63	5.91
COc1cc2c(-c3cnn4cc(N5CCC(N6CCCN(C)CC6)CC5)cnc34)ccnc2cc1F [Compound 42]	8.05	7.23
COc1cc2c(-c3cnn4cc(N5CCC(N6CC[N+](C)([O-])CC6)CC5)cnc34)ccnc2cc1F [Compound 43]	6.20	5.72
COc1cc2c(-c3cnn4cc(N5CCC(N6CC[N+](C)(C)CC6)CC5)cnc34)ccnc2cc1F [Compound 44]	< 5.52	6.68
[2H]C([2H])([2H])N1CCN(C2CCN(c3cnc4c(-c5ccnc6cc(F)c(OC)cc56)cnn4c3)CC2)CC1 [Compound 45]	7.62	6.42
COc1cc2c(-c3cnn4cc(N5CCC(N6CCS(=O)(=O)CC6)CC5)cnc34)ccnc2cc1F [Compound 46]	6.97	6.34
COc1cc2c(-c3cnn4cc(N5CCC(N6CCN(C)CC6)C(F)C5)cnc34)ccnc2cc1F (stereo not shown) [Compound 47]	7.12	6.32
COc1cc2c(-c3cnn4cc(N5CCC(N6CCN(C)CC6)C5)cnc34)ccnc2cc1F (stereo not shown) [Compound 48]	7.30	6.04
COc1cc2c(-c3cnn4cc(N5CC(N6CCN(C)CC6)C5)cnc34)ccnc2cc1F [Compound 49]	7.96	6.20
COc1cc2c(-c3cnn4cc(N5CCC(N6CCC(C)(N)CC6)CC5)cnc34)ccnc2cc1F [Compound 51]	7.22	6.39
COc1cc2c(-c3cnn4cc(N5CCC(N6CC7CCC(C6)N7)CC5)cnc34)ccnc2cc1F [Compound 52]	7.54	6.45
COc1cc2c(-c3cnn4cc(N5CCC(N6CC7CCC(C6)N7C)CC5)cnc34)ccnc2cc1F [Compound 53]	8.05	6.70
COc1cc2c(-c3cnn4cc(N5CCC(N6C[C@H]7C[C@@H]6CN7)CC5)cnc34)ccnc2cc1F [Compound 54]	7.15	6.27
COc1cc2c(-c3cnn4cc(N5CCC(N6C[C@H]7C[C@@H]6CN7C)CC5)cnc34)ccnc2cc1F [Compound 55]	8.05	6.57
COc1cc2c(-c3cnn4cc(N5CCC(C)(N6CCN(C)CC6)CC5)cnc34)ccnc2cc1F [Compound 57]	6.68	< 6.00
COc1cc2c(-c3cnn4cc(N5CCC(N6CCN(C)CC6C)CC5)cnc34)ccnc2cc1F (stereo not shown) [Compound 58, 4-[6-[4-(2,4-dimethylpiperazin-1-yl)-1-piperidyl]pyrazolo[1,5-a]pyrimidin-3-yl]-7-fluoro-6-methoxy-quinoline]	6.42	6.01
COc1ccc2nccc(-c3cnn4cc(N5CCC(N6CCN(C)CC6)CC5)cnc34)c2n1 [Compound 60, 2-methoxy-8-[6-[4-(4-methylpiperazin-1-yl)-1-piperidyl]pyrazolo[1,5-a]pyrimidin-3-yl]-1,5-naphthyridine]	7.38	< 5.52
COc1cc2c(-c3cnn4cc(N5CCC(N6CCN(C)CC6)C(C)C5)cnc34)ccnc2cc1F (stereo not shown) [Compound 61]	< 6.00	< 5.52
Cc1cc(-c2cnn3cc(N4CCC(N5CCCN(C)CC5)CC4)cnc23)c2ccccc2n1 [Compound 62]	7.05	7.43
CN1CCN(C2CCN(c3cnc4c(-c5cccc(S(C)(=O)=O)c5)cnn4c3)CC2)CC1 [Compound 63]	6.01	5.17
CN1CCN(C2CCN(c3cnc4c(-c5cccc(P(C)(C)=O)c5)cnn4c3)CC2)CC1 [Compound 64]	7.55	< 5.52
CC(=O)N1CCC(N2CCN(c3cnc4c(-c5ccnc6ccccc56)cnn4c3)CC2)CC1 [Compound 81]	< 5.52	< 5.52
